In ChEMBL document CHEMBL1649508, “Emergence of quinolone-resistant Bordetella pertussis in Japan” (2009):
Values after ≈ are worked out from the molar mass of the structure shown.

How the values were obtained:
Format in all cases: functional
Bordetella pertussis [1] = assay: Antibacterial activity against quinolone-susceptible Bordetella pertussis BP113 by Etest method
Bordetella pertussis [2] = assay: Antibacterial activity against […] Bordetella pertussis BP118 by Etest method
Bordetella pertussis [3] = assay: Antibacterial activity against […] Bordetella pertussis BP58 by Etest method
Bordetella pertussis [4] = assay: Antibacterial activity against quinolone-susceptible Bordetella pertussis CCUG 30837 by Etest method
Bordetella pertussis [5] = assay: Antibacterial activity against quinolone-susceptible Bordetella pertussis BP109 by Etest method
Bordetella pertussis [6] = assay: Antibacterial activity against […] Bordetella pertussis BP58 by Etest method in presence of efflux pump inhibitor phenyl-arginine-beta-naphthylamide
Bordetella pertussis [7] = assay: Antibacterial activity against […] Bordetella pertussis BP117 by Etest method
Bordetella pertussis [8] = assay: Antibacterial activity against quinolone-susceptible Bordetella pertussis BP128 by Etest method
Bordetella pertussis [9] = assay: Antibacterial activity against quinolone-susceptible Bordetella pertussis BP113 by Etest method in presence of efflux pump inhibitor phenyl-arginine-beta-naphthylamide
Bordetella pertussis [10] = assay: Antibacterial activity against quinolone-susceptible Bordetella pertussis BP115 by Etest method
Bordetella pertussis [11] = assay: Antibacterial activity against […] Bordetella pertussis BP117 by Etest method in presence of efflux pump inhibitor phenyl-arginine-beta-naphthylamide
Bordetella pertussis [12] = assay: Antibacterial activity against quinolone-susceptible Bordetella pertussis CCUG 30837 by Etest method in presence of efflux pump inhibitor phenyl-arginine-beta-naphthylamide
Bordetella pertussis [13] = assay: Antibacterial activity against quinolone-susceptible Bordetella pertussis BP111 by Etest method
Bordetella pertussis [14] = assay: Antibacterial activity against quinolone-susceptible Bordetella pertussis BP106 by Etest method
Bordetella pertussis [15] = assay: Antibacterial activity against […] Bordetella pertussis BP121 by Etest method
Bordetella pertussis [16] = assay: Antibacterial activity against […] Bordetella pertussis BP99 by Etest method
Bordetella pertussis [17] = assay: Antibacterial activity against […] Bordetella pertussis BP121 by Etest method in presence of efflux pump inhibitor phenyl-arginine-beta-naphthylamide
Bordetella pertussis [18] = assay: Antibacterial activity against […] Bordetella pertussis BP122 by Etest method
Bordetella pertussis [19] = assay: Antibacterial activity against […] Bordetella pertussis BP99 by Etest method in presence of efflux pump inhibitor phenyl-arginine-beta-naphthylamide
Bordetella pertussis [20] = assay: Antibacterial activity against quinolone-susceptible Bordetella pertussis BP112 by Etest method
Bordetella pertussis [21] = assay: Antibacterial activity against quinolone-susceptible Bordetella pertussis BP101 by Etest method
Bordetella pertussis [22] = assay: Antibacterial activity against […] Bordetella pertussis BP118 by Etest method in presence of efflux pump inhibitor phenyl-arginine-beta-naphthylamide
Bordetella pertussis [23] = assay: Antibacterial activity against […] Bordetella pertussis BP122 by Etest method in presence of efflux pump inhibitor phenyl-arginine-beta-naphthylamide

Structure (SMILES)	MIC (Bordetella pertussis [1])	MIC (Bordetella pertussis [2])	MIC (Bordetella pertussis [3])	MIC (Bordetella pertussis [4])	MIC (Bordetella pertussis [5])	MIC (Bordetella pertussis [7])	MIC (Bordetella pertussis [8])	MIC (Bordetella pertussis [10])	MIC (Bordetella pertussis [13])	MIC (Bordetella pertussis [14])	MIC (Bordetella pertussis [15])	MIC (Bordetella pertussis [16])	MIC (Bordetella pertussis [18])	MIC (Bordetella pertussis [20])	MIC (Bordetella pertussis [21])	other results
CCn1cc(C(=O)O)c(=O)c2ccc(C)nc21 [NALIDIXIC ACID]	2 µg/mL (≈ 8.61 µM)	> 256 µg/mL	> 256 µg/mL	2 µg/mL (≈ 8.61 µM)	2 µg/mL (≈ 8.61 µM)	> 256 µg/mL	1 µg/mL (≈ 4.31 µM)	1 µg/mL (≈ 4.31 µM)	2 µg/mL (≈ 8.61 µM)	1 µg/mL (≈ 4.31 µM)	> 256 µg/mL	> 256 µg/mL	> 256 µg/mL	1 µg/mL (≈ 4.31 µM)	2 µg/mL (≈ 8.61 µM)	MIC (Bordetella pertussis [6]): 64 µg/mL; MIC (Bordetella pertussis [9]): 0.25 µg/mL; MIC (Bordetella pertussis [11]): 64 µg/mL; MIC (Bordetella pertussis [12]): 0.25 µg/mL; MIC (Bordetella pertussis [17]): 32 µg/mL; MIC (Bordetella pertussis [19]): 32 µg/mL; MIC (Bordetella pertussis [22]): 64 µg/mL; MIC (Bordetella pertussis [23]): 32 µg/mL
CCn1cc(C(=O)O)c(=O)c2cc(F)c(N3CCNCC3)cc21 [NORFLOXACIN]	0.064 µg/mL (≈ 0.2 µM)	0.5 µg/mL (≈ 1.57 µM)	1 µg/mL (≈ 3.13 µM)	0.125 µg/mL (≈ 0.391 µM)	0.064 µg/mL (≈ 0.2 µM)	0.5 µg/mL (≈ 1.57 µM)	0.064 µg/mL (≈ 0.2 µM)	0.064 µg/mL (≈ 0.2 µM)	0.064 µg/mL (≈ 0.2 µM)	0.064 µg/mL (≈ 0.2 µM)	1 µg/mL (≈ 3.13 µM)	1 µg/mL (≈ 3.13 µM)	1 µg/mL (≈ 3.13 µM)	0.064 µg/mL (≈ 0.2 µM)	0.032 µg/mL (≈ 0.1 µM)	
O=C(O)c1cn(C2CC2)c2cc(N3CCNCC3)c(F)cc2c1=O [CIPROFLOXACIN]	0.008 µg/mL (≈ 0.0241 µM)	0.125 µg/mL (≈ 0.377 µM)	0.125 µg/mL (≈ 0.377 µM)	0.032 µg/mL (≈ 0.0966 µM)	0.008 µg/mL (≈ 0.0241 µM)	0.125 µg/mL (≈ 0.377 µM)	0.016 µg/mL (≈ 0.0483 µM)	0.016 µg/mL (≈ 0.0483 µM)	0.016 µg/mL (≈ 0.0483 µM)	0.008 µg/mL (≈ 0.0241 µM)	0.125 µg/mL (≈ 0.377 µM)	0.125 µg/mL (≈ 0.377 µM)	0.125 µg/mL (≈ 0.377 µM)	0.008 µg/mL (≈ 0.0241 µM)	0.016 µg/mL (≈ 0.0483 µM)	
O=C(N[C@H](CO)[C@H](O)c1ccc([N+](=O)[O-])cc1)C(Cl)Cl [CHLORAMPHENICOL]	0.5 µg/mL (≈ 1.55 µM)	0.5 µg/mL (≈ 1.55 µM)	0.5 µg/mL (≈ 1.55 µM)	0.5 µg/mL (≈ 1.55 µM)	0.125 µg/mL (≈ 0.387 µM)	0.25 µg/mL (≈ 0.774 µM)	0.25 µg/mL (≈ 0.774 µM)	0.5 µg/mL (≈ 1.55 µM)	0.25 µg/mL (≈ 0.774 µM)	0.25 µg/mL (≈ 0.774 µM)	0.25 µg/mL (≈ 0.774 µM)	0.25 µg/mL (≈ 0.774 µM)	0.25 µg/mL (≈ 0.774 µM)	0.25 µg/mL (≈ 0.774 µM)	0.25 µg/mL (≈ 0.774 µM)	
C[C@H]1COc2c(N3CCN(C)CC3)c(F)cc3c(=O)c(C(=O)O)cn1c23.C[C@H]1COc2c(N3CCN(C)CC3)c(F)cc3c(=O)c(C(=O)O)cn1c23.O [LEVOFLOXACIN]	0.008 µg/mL	0.064 µg/mL	0.064 µg/mL	0.016 µg/mL	0.004 µg/mL	0.064 µg/mL	0.016 µg/mL	0.008 µg/mL	0.008 µg/mL	0.008 µg/mL	0.064 µg/mL	0.064 µg/mL	0.064 µg/mL	0.008 µg/mL	0.016 µg/mL	

The next lines start with results.

MIC (Bordetella pertussis [1])	MIC (Bordetella pertussis [2])	MIC (Bordetella pertussis [3])	MIC (Bordetella pertussis [4])	MIC (Bordetella pertussis [5])	MIC (Bordetella pertussis [7])	MIC (Bordetella pertussis [8])	MIC (Bordetella pertussis [10])	MIC (Bordetella pertussis [13])	MIC (Bordetella pertussis [14])	MIC (Bordetella pertussis [15])	MIC (Bordetella pertussis [16])	MIC (Bordetella pertussis [18])	MIC (Bordetella pertussis [20])	MIC (Bordetella pertussis [21])	Structure (SMILES)	other results
0.004 µg/mL (≈ 0.0107 µM)	0.032 µg/mL (≈ 0.0852 µM)	0.032 µg/mL (≈ 0.0852 µM)	0.008 µg/mL (≈ 0.0213 µM)	0.004 µg/mL (≈ 0.0107 µM)	0.032 µg/mL (≈ 0.0852 µM)	0.008 µg/mL (≈ 0.0213 µM)	0.008 µg/mL (≈ 0.0213 µM)	0.008 µg/mL (≈ 0.0213 µM)	0.004 µg/mL (≈ 0.0107 µM)	0.032 µg/mL (≈ 0.0852 µM)	0.032 µg/mL (≈ 0.0852 µM)	0.032 µg/mL (≈ 0.0852 µM)	0.004 µg/mL (≈ 0.0107 µM)	0.008 µg/mL (≈ 0.0213 µM)	COc1c(N2CCNC(C)C2)c(F)cc2c(=O)c(C(=O)O)cn(C3CC3)c12 (stereo not drawn) [GATIFLOXACIN]	
0.004 µg/mL (≈ 0.0102 µM)	0.064 µg/mL (≈ 0.163 µM)	0.125 µg/mL (≈ 0.319 µM)	0.016 µg/mL (≈ 0.0408 µM)	0.004 µg/mL (≈ 0.0102 µM)	0.064 µg/mL (≈ 0.163 µM)	0.008 µg/mL (≈ 0.0204 µM)	0.004 µg/mL (≈ 0.0102 µM)	0.008 µg/mL (≈ 0.0204 µM)	0.004 µg/mL (≈ 0.0102 µM)	0.064 µg/mL (≈ 0.163 µM)	0.032 µg/mL (≈ 0.0815 µM)	0.064 µg/mL (≈ 0.163 µM)	0.004 µg/mL (≈ 0.0102 µM)	0.008 µg/mL (≈ 0.0204 µM)	C[C@@H]1CN(c2c(F)c(N)c3c(=O)c(C(=O)O)cn(C4CC4)c3c2F)C[C@H](C)N1 [SPARFLOXACIN]	
